The test system of this experiment is acetylated tubulin (Lys40) in HeLa cells. Briefly: Acetylated α-tubulin measurement in vitro (immunocytochemistry). The experiment is classed as cell-based. To be noted: Homo sapiens, 6 hours incubation, acetylated tubulin (Lys40) by immunocytochemistry, read-out: IC50 (Tubulin deacetylation). The protocol:
HeLa cells were cultured in UltraCulture serum-free medium (Lonza) supplemented with 2 mM glutamine (Lonza). Assays were performed at 96-well or 384-well format, differences in assay protocols are detailed in Table 6. Cells per well were plated and incubated overnight at 37° C. overnight in a humidified atmosphere containing 5% CO2. Cell density and seeding volumes are detailed in Table 6. Compounds (dissolved in 100% DMSO) or DMSO (vehicle) were added manually by diluting them in culture medium at 10× final assay concentration and adding 10 μL to cells (96-well protocol). Alternatively, 50 nL compound was added directly to the cell culture using the Echo650 (Labcyte) (384-well protocol). In this assay, the final assay concentration of DMSO is 0.1%-0.4%. Trichostatin A (TSA) was used as a positive control. Cells were incubated with compounds at 37° C. in a humidified atmosphere containing 5% CO2 for 6 hours. Levels of acetylated tubulin (Lys40) were assessed by immunocytochemistry using target-specific antibodies. Cells were fixed with 4% PFA at RT as detailed in Table 6. After 2-3 wash steps with PBS, cells were permeabilized with 0.5% Triton in PBS at RT for 10 minutes followed by 1-2 washes with PBS. To avoid non-specific antibody staining, cells were blocked with 3% BSA in PBS at room temperature for 1 hour. […] Cells were washed 2-3 times with PBS and labelled for 1 h at RT with goat anti-mouse conjugated with Alexa 647 (Thermofisher) and goat anti-rabbit conjugated with Alexa 555 (Thermofisher) secondary antibodies, diluted in 1% BSA to a final concentration of 1:1000. Simultaneously, nuclei were stained with 1:10000-1:15000 Hoechst (Thermofisher). Incubation time and temperature of the primary antibodies are detailed in Table 6. Cells were washed 2-3 times with PBS and they were imaged with the Operetta CLS or Opera Phenix (PerkinElmer). Imaging is further detailed in Table 6. For imaging analysis, the Harmony analysis software (PerkinElmer) was used. Cytoplasmic (defined by total α-tubulin staining) intensities per well were used for α-tubulin (acetylated and total) quantification. Intensities were measured per cell and then averaged per well. Mean intensity levels of acetylated tubulin were normalized to the mean intensity levels of total tubulin. The changes in acetylated tubulin were normalized for each plate using GraphPad Prism software: tubulin acetylation in vehicle (DMSO)-treated cells were set to 0% while tubulin acetylation in TSA-treated cells were set to 100%. EC50 values were calculated using the log(inhibitor) vs. response—Variable slope (four parameters) nonlinear regression in GraphPad Prism software.

A value given as a limit tells only on which side of the number the result lay.

In the case of `O=C(CSc1nc(C(F)(F)F)nc2nn(C3CC3)cc12)c1ccc(CNC(=O)C2CC2(F)F)s1` (stereo not drawn) [Example 43, N-((5-(2-((2-cyclopropyl-6-(trifluoromethyl)-2H-pyrazolo[3,4-d]pyrimidin-4-yl)thio)acetyl)thiophen-2-yl)methyl)-2,2-difluorocyclopropane-1-carboxamide], the IC50 – broadly, the concentration at which inhibition is half-maximal – lay within 100 to 500 nM.

`O=C(CSc1nc(C(F)(F)F)nc2nn(C3CC3)cc12)c1ccc(CNC(=O)C(F)(F)C(F)(F)F)s1` [Example 44, N-((5-(2-((2-cyclopropyl-6-(trifluoromethyl)-2H-pyrazolo[3,4-d]pyrimidin-4-yl)thio)acetyl)thiophen-2-yl)methyl)-2,2,3,3,3-pentafluoropropanamide]: the IC50 fell in the range of 100 to 500 nM.

In the case of `O=C(CSc1nc2nc(C(F)(F)F)ccc2o1)c1ccc(CNC(=O)C2(O)CC2)s1` [Example 45, 1-hydroxy-N-((5-(2-((5-(trifluoromethyl)oxazolo[4,5-b]157yrrolid-2-yl)thio)acetyl)thiophen-2-yl)methyl)cyclopropane-1-carboxamide], the half-inhibitory concentration (IC50) was not above 100 nM.

Take `Cn1cc2c(SCC(=O)c3ccc(CNC(=O)C(O)C(F)(F)F)s3)nc(C(F)(F)F)nc2n1` (stereo not drawn) [Example 46, 3,3,3-trifluoro-2-hydroxy-N-((5-(2-((2-methyl-6-(trifluoromethyl)-2H-pyrazolo[3,4-d]pyrimidin-4-yl)thio)acetyl)thiophen-2-yl)methyl)propanamide]: the IC50 was in the range of 100 to 500 nM. Turning to `O=C(CSc1nc(C(F)(F)F)nc2ccc(N3CCOCC3)cc12)c1ccc(CNC(=O)C2(O)CC2)s1` [Example 47, 1-hydroxy-N-((5-(2-((6-morpholino-2-(trifluoromethyl)quinazolin-4-yl)thio)acetyl)thiophen-2-yl)methyl)cyclopropane-1-carboxamide], the half-maximal inhibitory concentration (IC50) lay in the range of 100 to 500 nM.

As to `Cn1cc2c(SCC(=O)c3ccc(CNC(=O)C(C)(C)O)s3)nc(C(F)(F)F)nc2n1` [Example 48, 2-hydroxy-2-methyl-N-((5-(2-((2-methyl-6-(trifluoromethyl)-2H-pyrazolo[3,4-d]pyrimidin-4-yl)thio)acetyl)thiophen-2-yl)methyl)propanamide], the 50% inhibitory concentration (IC50) fell in the range of 100 to 500 nM. Take `Cn1cc2c(SCC(=O)c3ccc(CNC(=O)C4(O)CC4)s3)nc(C(F)(F)F)nc2n1` [Example 49, 1-hydroxy-N-((5-(2-((2-methyl-6-(trifluoromethyl)-2H-pyrazolo[3,4-d]pyrimidin-4-yl)thio)acetyl)thiophen-2-yl)methyl)cyclopropane-1-carboxamide]: the IC50 fell in the range of 100 to 500 nM. As to `COc1ccc2nc(C)nc(SCC(=O)c3ccc(CNC(=O)C4(O)CC4)s3)c2c1` [Example 50, 1-hydroxy-N-((5-(2-((6-methoxy-2-methylquinazolin-4-yl)thio)acetyl)thiophen-2-yl)methyl)cyclopropane-1-carboxamide], the IC50 was in the range of 100 to 500 nM. Regarding `COc1ccc2nc(C)nc(SCC(=O)c3ccc(CNC(=O)C4CC4)s3)c2c1` [Example 51, N-((5-(2-((6-methoxy-2-methylquinazolin-4-yl)thio)acetyl)thiophen-2-yl)methyl)cyclopropanecarboxamide], the IC50 was in the range of 1000 to 3330 nM. The result for `Cn1ncc2c(SCC(=O)c3ccc(CNC(=O)CO)s3)ncnc21` [Example 59, 2-hydroxy-N-((5-(2-((1-methyl-1H-pyrazolo[3,4-d]pyrimidin-4-yl)thio)acetyl)thiophen-2-yl)methyl)acetamide] reads 100 to 500 nM.

Turning to `COc1ccc2nc(C)nc(SCC(=O)c3ccc(CNC(=O)CO)s3)c2c1` [Example 60, 2-Hydroxy-N-((5-(2-((6-methoxy-2-methylquinazolin-4-yl)thio)acetyl)thiophen-2-yl)methyl)acetamide], the IC50 is 100 to 500 nM. In the case of `Cn1cc2c(SCC(=O)c3ccc(CNC(=O)CO)s3)nc(C(F)(F)F)nc2n1` [Example 61, 2-hydroxy-N-((5-(2-((2-methyl-6-(trifluoromethyl)-2H-pyrazolo[3,4-d]pyrimidin-4-yl)thio)acetyl)thiophen-2-yl)methyl)acetamide], the IC50 is not above 100 nM.

With `CCc1nc(SCC(=O)c2ccc(CNC(=O)CO)s2)c2ccccc2n1` [Example 62, N-((5-(2-((2-ethylquinazolin-4-yl)thio)acetyl)thiophen-2-yl)methyl)-2-hydroxyacetamide], the IC50 was in the range of 100 to 500 nM.

Consider `O=C(CO)NCc1ccc(C(=O)CSc2nc(C(F)(F)F)nc3ccc(N4CCOCC4)cc23)s1` [Example 63], for which the half-inhibitory concentration (IC50) lay within 100 to 500 nM.

`Cc1nc(SCC(=O)c2ccc(CNC(=O)CO)s2)c2cccnc2n1` [Example 64, 2-hydroxy-N-((5-(2-((2-methylpyrido[2,3-d]pyrimidin-4-yl)thio)acetyl)thiophen-2-yl)methyl)acetamide]: the IC50 is not above 100 nM.

As to `Cc1nc(SCC(=O)c2ccc(CNC(=O)CO)s2)c2cn(C)nc2n1` [Example 65, N-((5-(2-((2,6-dimethyl-2H-pyrazolo[3,4-d]pyrimidin-4-yl)thio)acetyl)thiophen-2-yl)methyl)-2-hydroxyacetamide], the IC50 is 1000 to 3330 nM. Under `Cc1nc(SCC(=O)c2ccc(CNC(=O)CO)s2)c2ccccc2n1` [Example 66, 2-hydroxy-N-((5-(2-((2-methylquinazolin-4-yl)thio)acetyl)thiophen-2-yl)methyl)acetamide] stands 100 to 500 nM; under `Cc1nc(SCC(=O)c2ccc(CNC(=O)CO)s2)c2cc(F)ccc2n1` [Example 67, N-((5-(2-((6-fluoro-2-methylquinazolin-4-yl)thio)acetyl)thiophen-2-yl)methyl)-2-hydroxyacetamide], 100 to 500 nM. For the compound `Cc1nc(SCC(=O)c2ccc(CNC(=O)CO)s2)c2ccc(F)cc2n1` [Example 68, N-((5-(2-((7-fluoro-2-methylquinazolin-4-yl)thio)acetyl)thiophen-2-yl)methyl)-2-hydroxyacetamide], the IC50 is 100 to 500 nM.

In the case of `Cn1cc2c(SCC(=O)c3ccc(CNC(=O)CO)s3)nc(C(F)F)nc2n1` [Example 69, N-((5-(2-((6-(difluoromethyl)-2-methyl-2H-pyrazolo[3,4-d]pyrimidin-4-yl)thio)acetyl)thiophen-2-yl)methyl)-2-hydroxyacetamide], the IC50 lay in the range of 100 to 500 nM. The result for `COc1ccc2c(SCC(=O)c3ccc(CNC(=O)CO)s3)nc(C)nc2c1` [Example 70, 2-hydroxy-N-((5-(2-((7-methoxy-2-methylquinazolin-4-yl)thio)acetyl)thiophen-2-yl)methyl)acetamide] reads 100 to 500 nM; that for `O=C(CO)NCc1ccc(C(=O)CSc2nc3cc(C(F)(F)F)ncc3o2)s1` [Example 71, 2-hydroxy-N-((5-(2-((6-(trifluoromethyl)oxazolo[5,4-c]156yrrolid-2-yl)thio)acetyl)thiophen-2-yl)methyl)acetamide], not above 100 nM; that for `O=C(CO)NCc1ccc(C(=O)CSc2nc3nc(C(F)(F)F)ccc3o2)s1` [Example 72, 2-hydroxy-N-((5-(2-((5-(trifluoromethyl)oxazolo[4,5-b]156yrrolid-2-yl)thio)acetyl)thiophen-2-yl)methyl)acetamide], not above 100 nM. With `Cc1nc(SCC(=O)c2ccc(CNC(=O)CO)s2)c2cc(Cl)c(F)cc2n1` [Example 73, N-((5-(2-((6-chloro-7-fluoro-2-methylquinazolin-4-yl)thio)acetyl)thiophen-2-yl)methyl)-2-hydroxyacetamide], the IC50 was 100 to 500 nM.

The values are drawn from US12421222B2 (AUGUSTINE THERAPEUTICS, priority 2021, dated 2025).
